target: PriA-SSB (Klebsiella pneumoniae subsp. pneumoniae, UniProt A6TGC5); assay: PriA-SSB AlphaScreen (AS) dose-response screen of Enamine REAL compounds; assay type: biochemical, Klebsiella pneumonia; conditions: not given
Protocol: We screened the MLPCN compound library using an AlphaScreen (AS) assay at a single concentration (33.3 μm) following the same protocol previously used to screen the LC1234 libraries.[27],[28] Briefly, library compounds and controls were dispensed from 10 mM DMSO stocks into white 1536-well plates with an Echo 550 acoustic liquid handler. Next, 3 μL of a master mix was added to each well using a Mantis liquid handler with a high-volume silicone chip to yield a final reaction mixture containing 10 mM HEPES-HCl (pH 7.5), 150 mM NaCl, 1 mM MgCl2, 10 mM dithiothreitol, 1 mg/mL bovine serum albumin, 0.01% Triton X-100, 0.1 μM Klebsiella pneumonia PriA (with N-terminal 6×His tag), 0.1 μM Biotinylated-SSBct (N-Biotin-Trp-Met-Asp-Phe-Asp-Asp-Asp-Ile-Pro-Phe-C), 5 μg/mL of both AS acceptor and donor beads, and 33.3 μm of compound. For positive and negative control wells, the compound was replaced with 25 μM SSBct peptide (N-Trp-Met-Asp-Phe-Asp-Asp-Asp-Ile-Pro-Phe-C) or 25 μM ΔFSSBct (N-Trp-Met-Asp-Phe-Asp-Asp-Asp-Ile-Pro-C), respectively. Plates were centrifuged briefly and rocked for an hour at room temperature. Then, the AS signal of each well was measured with a PheraStar plate reader using a 0.1 s settling time, a 0.3 s excitation, a 0.04 s delay, and a 0.6 s integration time. AS signals for each well were adjusted as previously described to reduce the impact of plate and edge effects.[28] We calculated a Z′ factor for each plate[61] and repeated plates with Z′ < 0.5. In addition, we calculated the % inhibition relative to the controls for each compound. We retested compounds with ≥35% inhibition that also passed PAINS filters[62],[63] with the same assay to confirm activity.
All 68 compounds were initially screened in four replicates at eight concentrations ranging from 515.6 nm to 66 μm. We defined compounds whose median % inhibition at 33 μm was at least 50%, the same threshold used for the AMS screen, as initial hits. We repeated the dose–response curve screens for two additional rounds of ten compounds each, expanding the range of concentrations tested to improve the quality of the curve fits (Appendix A.9). We defined confirmed hits as those with a dose–response curve in curve class[82] 1.2 or in curve class 2.2 with an IC50 95% upper confidence limit within the tested range of concentrations. We used the Collaborative Drug Discovery Vault software[83] to fit dose–response curves, calculate IC50 values and the 95% upper and lower confidence limits, and define curve classes. […]
A.9 Enamine REAL Dose-Response Curves
We generated three sets of dose-response curves: eight-point curves with four replicates for all 68 Enamine compounds, 16-point curves with eight replicates for 10 compounds, and another set of 16-point curves with six replicates for 10 compounds. The eight-point dose-response curves started with an initial concentration of 66 µm and progressively divided the concentration in half until reaching 515.6 nm. Both 16-point dose-response curves started with an initial concentration of 100 µm, then 66.7 µm, and then progressively divided the concentration in half until reaching 4.2 nm. All dose-response screens followed the same protocol used for the MLPCN library. The dose-response curve images are available in our […]
We generated the 16-point dose-response curves because we were unable to reliably estab-lish IC50 values for some compounds in the eight-point screen. The minimum concentrations tested were not low enough. When reporting IC50 values and bounds in Table 4 we used the screening data from the highest-quality dose-response curve. The second set of 16-point curves were the highest quality because they had 16 concentrations and were unaﬀected by any spatial plate eﬀects. The ﬁrst set of 16-point curves were the next highest quality because they also had 16 concentrations and the most replicates. However, some of the readings at the lowest concentration in these curves were skewed due to assay spatial eﬀects at the plate […]
edge. […]

Sequence of PriA-SSB (A6TGC5 whole entry): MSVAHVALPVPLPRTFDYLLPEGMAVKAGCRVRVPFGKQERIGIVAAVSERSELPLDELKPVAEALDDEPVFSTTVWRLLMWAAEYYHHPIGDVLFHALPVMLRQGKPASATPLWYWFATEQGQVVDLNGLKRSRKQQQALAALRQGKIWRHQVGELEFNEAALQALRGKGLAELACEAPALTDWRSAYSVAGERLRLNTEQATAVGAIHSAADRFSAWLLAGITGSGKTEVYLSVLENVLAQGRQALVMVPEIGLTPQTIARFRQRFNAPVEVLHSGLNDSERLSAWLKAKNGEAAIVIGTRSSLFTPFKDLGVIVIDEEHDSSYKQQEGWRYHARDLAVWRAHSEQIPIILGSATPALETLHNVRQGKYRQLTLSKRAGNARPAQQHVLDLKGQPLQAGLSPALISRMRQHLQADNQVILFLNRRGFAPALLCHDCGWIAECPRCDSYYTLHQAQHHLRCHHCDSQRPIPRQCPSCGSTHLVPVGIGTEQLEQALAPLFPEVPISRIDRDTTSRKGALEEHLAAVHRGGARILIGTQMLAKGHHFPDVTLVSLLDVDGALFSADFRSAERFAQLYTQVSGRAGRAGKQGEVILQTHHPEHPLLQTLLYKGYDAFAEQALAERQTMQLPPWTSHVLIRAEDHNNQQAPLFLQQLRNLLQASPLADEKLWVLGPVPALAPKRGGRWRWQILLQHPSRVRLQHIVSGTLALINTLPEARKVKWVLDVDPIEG

SMILES | IC50 [µM]
CC(C)N(C)S(=O)(=O)c1ccc(F)c(C(=O)Nc2nc(-c3ccccn3)cs2)c1 [Z339655406] | 6.8
O=C1CC2(CCOC2)C(C(=O)Nc2nc(-c3ccccn3)cs2)CN1 (stereo not drawn) [Z3297024656] | 12.6
O=C(CN1C(=O)COc2ccc([N+](=O)[O-])cc21)Nc1nc(-c2ccccn2)cs1 [Z109132782] | 12.4
Cc1n[nH]c(SCC(=O)Nc2nnc(-c3ccccn3)[nH]2)n1 [Z1313381195] | 15.5
CC1CC(Nc2nc(-c3ccccn3)nc3c2CCC3)CC(C)N1 (stereo not drawn) [Z3395547714] | 12.1

same assay, conditions: eight concentrations 515.6 nm to 66 μm; includes some initial hits not confirmed

SMILES | Enamine Inactive (not confirmed as hit in full dose-response curves)
CN(C)CCN(C)c1ccc2ccc3cccnc3c2n1 [Z3557781825] | Inactive
c1ccc(-c2n[nH]c3ccccc23)nc1 [Z3242476057] | Inactive
c1ccc(-c2csc(NC3COC4(CCC4)C3)n2)nc1 (stereo not drawn) [Z3295148399] | Inactive
CCOC(=O)c1[nH]c(C)c(C(=O)CSc2cccc3cccnc23)c1C [Z225905608] | Inactive
O=c1[nH]ncc(N/N=C/c2ccccn2)c1Cl [Z114886052] | Inactive
CC1(C)CC(CSc2cccc3cccnc23)=NO1 [Z3638513333] | Inactive
O=C(CSc1cccc2cccnc12)Nc1cccc(N2CCCC2=O)c1 [Z202503096] | Inactive
OCCCN(CCO)c1ccc2ccc3cccnc3c2n1 [Z3557694708] | Inactive
c1ccc(-c2cnc3n2CCC3)nc1 [Z3347084877] | Inactive
O=C(Nc1nc(-c2ccccn2)cs1)C1(C2CCCCO2)CCCO1 (stereo not drawn) [Z3075781550] | Inactive
O=[N+]([O-])c1ncn(Cc2cccc3cccnc23)n1 [Z666250890] | Inactive
c1cc2c(c(-c3cccc4cccnc34)c1)CNC2 [Z3484513235] | Inactive
O=[N+]([O-])c1cc(Cl)cc(C=Nc2ccc(Cl)c3ncccc23)c1O [Z314947084] | Inactive
Cc1ccc(-n2nc(C)cc2NC(=O)CSc2cccc3cccnc23)cc1 [Z71174619] | Inactive
CC(C)(C)c1ncc(-c2cccc3cccnc23)o1 [Z2998111045] | Inactive
Cc1cc(-c2ccccn2)n[nH]1 [Z3225506284] | Inactive
Cc1cccc2nc(CSc3cccc4cccnc34)cn12 [Z56788250] | Inactive

SMILES | Enamine Inactive (not confirmed as hit in full dose-response curves)
O=C(O)c1cc(C(=O)N2CCS(=O)(=O)CC2)ccn1 [Z1443864314] | Inactive
O=c1[nH]c(NN=Cc2ccccn2)nc2ccccc12 [Z1407899729] | Inactive
Clc1cccnc1NN=Cc1ccccn1 [Z734817070] | Inactive
CCc1nc(C)c(CSc2cccc3cccnc23)o1 [Z2273856428] | Inactive
CCOC(=O)c1c(C)[nH]c(C(=O)CSc2cccc3cccnc23)c1C [Z71173293] | Inactive
Nc1ncc(-c2ccccn2)cn1 [Z1255380138] | Inactive
CC(C)c1ncc(-c2cccc3cccnc23)n1C [Z2739840324] | Inactive
O=C(O)CSc1ccc([N+](=O)[O-])c2cccnc12 [Z285779920] | Inactive
c1cnc2c(SCCn3cncn3)cccc2c1 [Z1116571364] | Inactive
C1=C(c2cccc3cccnc23)CCNC1 [Z3238971184] | Inactive
Fc1cccc2[nH]c(-c3ccccn3)nc12 [Z666485712] | Inactive
c1cncc(CSCc2cccc3cccnc23)c1 [Z2146195633] | Inactive
O=C(Cc1ccc(S(=O)(=O)N2CCOCC2)s1)Nc1nc(-c2ccccn2)cs1 [Z29467739] | Inactive
Cc1nn(C(C)C)cc1-c1ccc2cccnc2c1C [Z2618185084] | Inactive
COC(C)COc1ccc2ccc3cccnc3c2n1 (stereo not drawn) [Z3634004206] | Inactive
Clc1ccc(CN2CCOCCOCC2)c2ncccc12 [Z3652859018] | Inactive
c1cnc2c(Cn3ccnc3)cccc2c1 [Z241926076] | Inactive

Reference: PMC10538940, “Evaluating Scalable Supervised Learning for Synthesize-on-Demand Chemical Libraries” (Journal of Chemical Information and Modeling, 2023)
